Assay: Retention/recovery of [19F]DCFPyL on the HLB solvent exchange cartridge as a function of pH (load, wash, product samples)
Type: physicochemical
Method: The goal of this study was to characterize the impact of pH on the retention of [^18F]DCFPyL on the HLB solvent exchange cartridge. […] The pH of one solution was adjusted to 2 and a second to 4 by adding 1N HCl. A third solution was used without adjusting its native pH of 7.2. Using a BD syringe, 10 mL of each solution was spiked with [^19F]DCFPyL (50 μg) by adding 0.5 mL of a 100 μg/mL stock solution. Each spiked solution was loaded onto a HLB cartridge at a rate of approximately 2 mL/min. […] The eluent from each HLB cartridge was individually collected and identified as the “wash solution.” Each HLB cartridge was then individually eluted with 1 mL of ethanol, the samples collected and are identified as the “product sample.” The load solution and wash solution samples were analyzed using a drug product chemical impurity assay after a 1 to 10 mL dilution with saline, while the ethanolic product samples were analyzed following a 0.5 to 10 dilution with saline.
The goal of this study was to characterize the impact of pH on the retention of ^18F-DCFPyL on the HLB solvent exchange cartridge. […] The pH of one solution was adjusted to 2 and a second to 4 by adding 1N HCl. A third solution was used without adjusting its native pH of 7.2. At this pH the solution will be mainly sodium ascorbate. Using a BD syringe, 10 mL of each solution was spiked with ^19F-DCFPyL (50 μg) by adding 0.5 mL of a 100 μg/mL stock solution. Each spiked solution was loaded onto an HLB cartridge at a rate of approximately 2 mL/min and the solution collected after the HLB column is identified as the load solution. […] Each HLB cartridge was then individually eluted with 1 mL of ethanol, the solution collected after the HLB column is identified as the product sample. The load solution and wash solution samples were analyzed using the drug product chemical impurity assay after a 1 to 10 mL dilution with saline, while the ethanolic product samples were analyzed following a 0.5 to 10 mL dilution with saline.

For `O=C(O)CC[C@H](NC(=O)N[C@@H](CCCCNC(=O)c1ccc([18F])nc1)C(=O)O)C(=O)O` [Lot 18F-DCFPyL, 2-(3-{1-carboxy-5-[(6-[18F]fluoro-pyridine-3-carbonyl)-amino]-pentyl}ureido)-pentanedioic acid], the “retention of [18F]-DCFPyL by the HLB cartridge” value (pH 2) was 98% and the “retention of [18F]-DCFPyL by the HLB cartridge” value (pH 4) was 81%.

Source: patent US20250019350A1, “SYNTHESIS OF THE PROSTATE SPECIFIC MEMBRANE ANTIGEN (PSMA) RADIOLABELED INHIBITOR [18F]DCFPYL” (Progenics Pharmaceuticals, Inc, priority 2023, published 2025)
